In article PMC5592720 (Planta medica, 2013):
Values joined by “and” are separate entries in the source; they are usually repeats but may differ in a detail not shown here. Identical values can stand only once. Like-named read-outs stand apart in the source and are kept apart here.

What was measured:
[1] = rat, cited from earlier work
CYP3A4 = CYP3A4 (Homo sapiens, UniProt P08684); experiment: Inhibition of cytochrome P450 3A4
CYP2C19 [2] = biological target: T1, CYP2C19 (Homo sapiens, UniProt P33261); experiment: Inhibition of cytochrome P450 2C19; conditions: words; table prints 2C19
[3] = Stability in simulated intestinal fluid; format: in vitro ADME; conditions: for % RD of dioscin depletion / % RD of diosgenin depletion: RD = relative difference
CYP2D6 [4] = biological target: T2, CYP2D6 (Homo sapiens, UniProt P10635); experiment: biochemical
in vitro = in vitro ADME, human; conditions: human, Caco-2
Caco-2 cell monolayers = experiment: in vitro; format: in vitro ADME, human; conditions: for % Transport Absorptive direction (A–B) / % Transport Secretory direction (A–B): Caco-2 monolayers, 1% HPβCD, 2 h; for Intestinal permeability across Caco-2 monolayers (rating): relative to atenolol and propranolol
CYP1A2 [5] = biological target: T3, CYP1A2 (Homo sapiens, UniProt P05177); experiment: Inhibition of cytochrome P450 1A2
T3 sequence (P05177 1-516): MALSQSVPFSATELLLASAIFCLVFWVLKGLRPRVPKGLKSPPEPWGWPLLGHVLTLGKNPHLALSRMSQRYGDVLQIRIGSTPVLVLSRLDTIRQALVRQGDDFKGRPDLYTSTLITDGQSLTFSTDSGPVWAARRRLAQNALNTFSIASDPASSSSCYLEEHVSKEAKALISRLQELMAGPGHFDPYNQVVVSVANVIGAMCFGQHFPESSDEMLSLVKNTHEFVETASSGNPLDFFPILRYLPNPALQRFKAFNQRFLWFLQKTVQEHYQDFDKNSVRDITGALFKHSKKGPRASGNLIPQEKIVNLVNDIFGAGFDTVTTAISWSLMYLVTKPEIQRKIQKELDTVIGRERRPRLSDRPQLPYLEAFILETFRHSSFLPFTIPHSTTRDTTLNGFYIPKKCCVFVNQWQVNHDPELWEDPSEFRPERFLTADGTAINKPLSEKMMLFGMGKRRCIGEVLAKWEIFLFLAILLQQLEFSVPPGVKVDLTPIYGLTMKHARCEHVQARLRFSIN

CYP2D6 [6] = biological target: T2, CYP2D6
[7] = Stability in simulated gastric fluid; format: in vitro ADME; conditions: for % RD of dioscin depletion / % RD of diosgenin depletion: RD = relative difference; for Degradation (depletion) in SGF: SGF pH 1.2, end of incubation (b9 prints 3-hour incubation)
[8] = Phase I metabolic stability in human liver microsomes; format: in vitro ADME; conditions: pooled human liver microsomes; for Stability in HLM (Phase I): up to 180 min, words
[9] = Phase II metabolic stability in S9 fractions; format: in vitro ADME, human
CYP1A2 [10] = biological target: T3, CYP1A2
[11] = cited from earlier work
CYP2C19 [12] = biological target: T1, CYP2C19
[13] = IC50 3A4, cDNA baculovirus-expressed enzyme, fluorescence substrate
[14] = IC50 CYP3A4, text, catalytic activity of CYP3A4

T2 sequence (P10635 whole entry): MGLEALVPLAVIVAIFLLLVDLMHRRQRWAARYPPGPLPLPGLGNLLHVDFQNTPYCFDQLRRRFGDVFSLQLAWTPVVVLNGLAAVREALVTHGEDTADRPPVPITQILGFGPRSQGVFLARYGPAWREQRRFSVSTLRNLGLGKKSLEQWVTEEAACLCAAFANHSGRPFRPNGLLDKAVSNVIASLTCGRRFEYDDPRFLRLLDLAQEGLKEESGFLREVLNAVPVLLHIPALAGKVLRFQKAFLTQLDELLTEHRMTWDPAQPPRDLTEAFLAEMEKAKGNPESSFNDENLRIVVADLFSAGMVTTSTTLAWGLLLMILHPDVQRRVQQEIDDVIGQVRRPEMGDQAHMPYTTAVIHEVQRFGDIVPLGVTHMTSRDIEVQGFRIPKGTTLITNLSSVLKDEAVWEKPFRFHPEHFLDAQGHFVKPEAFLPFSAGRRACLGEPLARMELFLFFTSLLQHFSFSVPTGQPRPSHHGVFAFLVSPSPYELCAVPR
CYP3A4, sequence (P08684 whole entry): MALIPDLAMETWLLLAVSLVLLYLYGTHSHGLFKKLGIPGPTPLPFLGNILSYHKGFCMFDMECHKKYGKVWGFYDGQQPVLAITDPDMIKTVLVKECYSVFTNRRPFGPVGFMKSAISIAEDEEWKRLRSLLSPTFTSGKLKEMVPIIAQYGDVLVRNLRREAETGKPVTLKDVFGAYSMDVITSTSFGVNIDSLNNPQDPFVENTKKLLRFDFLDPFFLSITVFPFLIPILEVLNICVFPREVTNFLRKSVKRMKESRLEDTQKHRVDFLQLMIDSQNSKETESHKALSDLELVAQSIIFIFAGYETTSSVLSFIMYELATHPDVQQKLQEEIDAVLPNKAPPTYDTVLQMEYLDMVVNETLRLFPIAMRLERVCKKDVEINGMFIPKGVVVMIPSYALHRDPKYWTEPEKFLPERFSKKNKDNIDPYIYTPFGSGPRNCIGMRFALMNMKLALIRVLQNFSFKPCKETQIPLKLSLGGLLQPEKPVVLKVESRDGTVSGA
T1 sequence (P33261 whole entry): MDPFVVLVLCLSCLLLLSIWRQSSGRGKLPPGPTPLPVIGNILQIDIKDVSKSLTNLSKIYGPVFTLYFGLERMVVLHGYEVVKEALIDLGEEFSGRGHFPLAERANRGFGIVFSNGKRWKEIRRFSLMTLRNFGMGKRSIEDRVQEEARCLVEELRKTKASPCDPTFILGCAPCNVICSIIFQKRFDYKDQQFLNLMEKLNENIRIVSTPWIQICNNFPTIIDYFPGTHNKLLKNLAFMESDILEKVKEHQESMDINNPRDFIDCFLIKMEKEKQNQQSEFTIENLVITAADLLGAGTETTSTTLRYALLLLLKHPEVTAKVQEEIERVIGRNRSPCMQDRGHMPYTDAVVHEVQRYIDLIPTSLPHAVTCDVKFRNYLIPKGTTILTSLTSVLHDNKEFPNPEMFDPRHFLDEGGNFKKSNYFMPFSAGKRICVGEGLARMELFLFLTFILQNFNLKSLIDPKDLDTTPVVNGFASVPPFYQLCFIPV

For C[C@@H]1CC[C@@]2(OC1)O[C@H]1C[C@H]3[C@@H]4CC=C5C[C@@H](O[C@@H]6O[C@H](CO)[C@@H](O[C@@H]7O[C@@H](C)[C@H](O)[C@@H](O)[C@H]7O)[C@H](O)[C@H]6O[C@@H]6O[C@@H](C)[C@H](O)[C@@H](O)[C@H]6O)CC[C@]5(C)[C@H]4CC[C@]3(C)[C@H]1[C@@H]2C [Dioscin, dioscin], the “Half-life after oral administration” value ([1]; oral) is given as 1540 min, the Oral bioavailability [1] is given as “low oral bioavailability” and the IC50 (CYP3A4; [13]) is given as 33 ± 4 µM. For the same compound, the IC50 (CYP3A4; [14]) was 33.4 µM, the “Effect on CYP 2C9 as printed in text (other CYP enzymes)” value (CYP2C19 [2]) was “not affected” and the “% RD of dioscin depletion” value ([3]; SIF pH 6.8, 60 min) was 4.3%. The “% RD of dioscin depletion” value ([3]; SIF pH 6.8, 120 min) was 9.9%, the “% RD of dioscin depletion” value ([3]; SIF pH 6.8, 180 min) was 11.6% and the “Amount of dioscin in SIF” value ([3]; SIF pH 6.8, incubation 0 min) was 41.1 ± 0.8 µg/mL. For the same compound, the “Amount of dioscin in SIF” value ([3]; SIF pH 6.8, incubation 60 min) was 39.3 ± 1.0 µg/mL, the “Amount of dioscin in SIF” value ([3]; SIF pH 6.8, incubation 120 min) was 37.0 ± 1.3 µg/mL and the “Amount of dioscin in SIF” value ([3]; SIF pH 6.8, incubation 180 min) was 36.3 ± 1.1 µg/mL. The IC50 (CYP2D6 [4]) was over 50 µM, the Papp A→B at 2 h (in vitro) was 15 ± 1 ×10⁻⁶ cm/s and the Papp B→A at 2 h (in vitro) was 20 ± 3 ×10⁻⁶ cm/s. The efflux ratio at 120 min (in vitro) was 1.3, the “Efflux across Caco-2 monolayer” value (Caco-2 cell monolayers; Caco-2, words) was “no significant efflux” and the “% Transport Absorptive direction (A–B)” value (Caco-2 cell monolayers) was 7.5% and 7.5 ± 0.8%. The “% Transport Secretory direction (A–B)” value (Caco-2 cell monolayers) was 11% and 11 ± 1%, the “Intestinal permeability across Caco-2 monolayers (rating)” value (Caco-2 cell monolayers) was “moderate” and the IC50 (CYP1A2 [5]) was over 50 µM. The “Effect on CYP 1A2 (other CYP enzymes)” value (CYP1A2 [5]; words) was “not affected”, the “Effect on CYP 2D6 (other CYP enzymes)” value (CYP2D6 [6]; words) was “not affected” and the “% RD of dioscin depletion” value ([7]; SGF pH 1.2, 30 min) was 16.7%. The “% RD of dioscin depletion” value ([7]; SGF pH 1.2, 60 min) was 23.6%, the “% RD of dioscin depletion” value ([7]; SGF pH 1.2, 120 min) was 28.3% and the “Degradation (depletion) in SGF” value [7] was 28.3%. For the same compound, the “Amount of dioscin in SGF” value ([7]; SGF pH 1.2, incubation 0 min) was 45.0 ± 4.0 µg/mL, the “Amount of dioscin in SGF” value ([7]; SGF pH 1.2, incubation 30 min) was 37.5 ± 1.2 µg/mL and the “Amount of dioscin in SGF” value ([7]; SGF pH 1.2, incubation 60 min) was 34.4 ± 1.1 µg/mL. For the same compound, the “Amount of dioscin in SGF” value ([7]; SGF pH 1.2, incubation 120 min) was 32.3 ± 1.0 µg/mL, the “Dioscin still detected after incubation in SGF” value ([7]; after 3-hour incubation in SGF as printed) was 71.7% and the “Compound detected after incubation in HLM” value ([8]; dioscin 50 μM) was “more than 50%”. For the same compound, the “Stability in HLM (Phase I)” value [8] was “relatively stable”, the “Compound detected after incubation in S9 fractions” value ([9]; S9 fractions, dioscin 50 μM) was “more than 50%” and the “Stability in S9 fraction (Phase II)” value ([9]; S9 fractions, words) was “relatively stable”.
For C[C@@H]1CC[C@@]2(OC1)O[C@H]1C[C@H]3[C@@H]4CC=C5C[C@@H](O)CC[C@]5(C)[C@H]4CC[C@]3(C)[C@H]1[C@@H]2C [Diosgenin, diosgenin], the “Effect on CYP 1A2 (other CYP enzymes)” value (CYP1A2 [10]) was “not affected”, the IC50 (CYP3A4; [13]) was 17 ± 4 µM and the IC50 (CYP3A4; [14]) was 21.7 µM. The “% RD of diosgenin depletion” value ([3]; SIF pH 6.8, 60 min) was 1.28%, the “% RD of diosgenin depletion” value ([3]; SIF pH 6.8, 120 min) was 4.21% and the “% RD of diosgenin depletion” value ([3]; SIF pH 6.8, 180 min) was 4.80%. The “Degradation (disappearance) in SIF” value ([3]; SIF pH 6.8, after 3 hours of incubation) was < 10% and 4.8%, the “Amount of diosgenin in SIF” value ([3]; SIF pH 6.8, incubation 0 min) was 57.0 ± 1.0 µg/mL and the “Amount of diosgenin in SIF” value ([3]; SIF pH 6.8, incubation 60 min) was 56.2 ± 1.9 µg/mL. The “Amount of diosgenin in SIF” value ([3]; SIF pH 6.8, incubation 120 min) was 54.6 ± 2.0 µg/mL, the “Amount of diosgenin in SIF” value ([3]; SIF pH 6.8, incubation 180 min) was 54.2 ± 3.2 µg/mL and the IC50 (CYP2D6 [4]) was over 50 µM. For the same compound, the Papp A→B at 2 h (in vitro) was 9.6 ± 0.7 ×10⁻⁶ cm/s, the Papp B→A at 2 h (in vitro) was 48 ± 4 ×10⁻⁶ cm/s and the efflux ratio at 120 min (in vitro) was 5. The “% Transport Absorptive direction (A–B)” value (Caco-2 cell monolayers) was 3.8% and 3.8 ± 0.8%, the “% Transport Secretory direction (A–B)” value (Caco-2 cell monolayers) was 21% and 21 ± 1% and the “Intestinal permeability across Caco-2 monolayers (rating)” value (Caco-2 cell monolayers) was “moderate”. For the same compound, the “Diosgenin levels in apical or basolateral side” value (Caco-2 cell monolayers; transport buffer (HBSS) without HPβCD, after 2-hour incubation) was “no diosgenin levels were detected”, the Aqueous solubility [11] was “poor aqueous solubility” and the “Effect on CYP 2C9 as printed in text (other CYP enzymes)” value (CYP2C19 [12]) was “not affected”. The IC50 (CYP1A2 [5]) was over 50 µM, the “Effect on CYP 2D6 (other CYP enzymes)” value (CYP2D6 [6]) was “not affected” and the “% RD of diosgenin depletion” value ([7]; SGF pH 1.2, 30 min) was 3.62%. The “% RD of diosgenin depletion” value ([7]; SGF pH 1.2, 60 min) was 8.31%, the “% RD of diosgenin depletion” value ([7]; SGF pH 1.2, 120 min) was 8.59% and the “Degradation (depletion) in SGF” value [7] was < 10% and 8.5%. The “Amount of diosgenin in SGF” value ([7]; SGF pH 1.2, incubation 0 min) was 52.4 ± 0.9 µg/mL, the “Amount of diosgenin in SGF” value ([7]; SGF pH 1.2, incubation 30 min) was 50.5 ± 0.9 µg/mL and the “Amount of diosgenin in SGF” value ([7]; SGF pH 1.2, incubation 60 min) was 48.0 ± 1.9 µg/mL. For the same compound, the “Amount of diosgenin in SGF” value ([7]; SGF pH 1.2, incubation 120 min) was 47.9 ± 1.1 µg/mL, the “Stability in HLM (Phase I)” value [8] was “stable” and the “Intrinsic clearance in S9 fraction” value ([9]; S9 fraction, diosgenin 100 μM) was 7 mL/min/kg. The half-life at 100 μM ([9]; human, s9) was 11.3 min.
For lucifer yellow [Ly, reference compound], the “Papp of Ly (monolayer integrity marker)” value (Caco-2 cell monolayers; Caco-2) was 2.0 ± 0.5 × 10^−6 cm/s.
